According to patent US7754896B2, “Indol-alanine derivatives as selective S1P4-agonists” (Novartis AG, priority 2004, dated 2010):

Target: T1, S1P5 (Homo sapiens, UniProt Q9H228)
T1 construct: expressed in transfected cells
Assay: GTPγS binding assay, S1P5
Format: biochemical
Details: CHO cells expressing S1P5
Text: The human S1P5 (GI: 30171332 or GenBank™ accession number AY262689, TREMBL: Q9H228) is cloned by a PCR based method. Lung and spleen cDNA (marathon cDNA) is obtained from BD Biosciences Chlontech (BD Biosciences Chlontech, Palo Alto, Calif. 94303, USA); genomic DNA is isolated from HeLa cells using standard procedures. Following oligonucleotides are used for the PCR reaction: forward primer CACCATGGAGTCGGGGCTGCTGCG (−4 to 20, GenBank™ accession number AY262689) and reverse primer 5′-TCAGTCTGCAGCCGGTTCTGATACCAGAGTC (1197 to 1131, AY262689), the initiation of the translation (ATG) and the stop codon are underlined. The PCR is performed In the presence of 0.2-0.4 μg cDNA, 1× reaction buffer (10× PfuTurbo DNA polymerase buffer, Stratagene, La Jolla, Calif. 92037, USA), 0.5 μM primers, 0.25 mM dNTP's and 2.5 units PfuTurbo DNA polymerase (Stratagene), a first step at 95° C. for 2 min, 30 cycles (30 sec at 95° C., 30 sec at 60° C. and 90 sec at 72° C.) and final step of 10 min at 72° C. The amplified product of around 1100 bp is analyzed by standard agarose gel-electrophoresis. […]
Membrane proteins are prepared from wild type CHO-K1 and the CHO cell clones expressing human S1P4. […] The protein concentration is determined using the Bio Rad Protein Assay and human IgG as standard. […]

T1 sequence (Q9H228 whole entry): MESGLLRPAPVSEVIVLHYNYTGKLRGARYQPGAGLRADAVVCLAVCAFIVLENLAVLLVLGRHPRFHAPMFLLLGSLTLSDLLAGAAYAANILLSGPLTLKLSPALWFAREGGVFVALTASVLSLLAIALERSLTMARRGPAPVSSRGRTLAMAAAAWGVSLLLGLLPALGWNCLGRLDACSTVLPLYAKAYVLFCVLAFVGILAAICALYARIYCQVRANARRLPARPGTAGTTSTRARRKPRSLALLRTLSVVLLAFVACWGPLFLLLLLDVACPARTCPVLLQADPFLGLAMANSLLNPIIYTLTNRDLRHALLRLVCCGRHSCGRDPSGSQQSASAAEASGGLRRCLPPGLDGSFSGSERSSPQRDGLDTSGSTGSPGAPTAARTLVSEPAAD

Compound `NC(CNC(=O)c1cc2c(-c3ccccc3Cc3ccccc3)cccc2[nH]1)C(=O)O` (stereo not shown) [Example 2] has an EC50 of over 10 µM.
